In a melting point compilation (Tetko et al.; mined from patent text by program, amines drawn as free bases though some values may be those of a salt):

Row | melting point [°C] | SMILES
1 | 158 to 159 | O=C(NCCO)c1cccc(-c2ccc3c(c2)N(Cc2cccc(Cl)c2Cl)CC3)c1
2 | 85 to 87 | COc1ccc(OCCCCCN2CCC(CNC(=O)c3cc(Cl)c(N)cc3OC)CC2)cc1OC
3 | 156 to 158 | N#CC(C(=O)c1ccc(Cl)cc1)=C1CCCN1
4 | 103 to 104 | CCOc1cc(CO)cc(OCc2nc(-c3ccccc3)oc2C)c1
5 | 184 to 185 | C=CCOC(=O)/C(=N\O)c1csc(N)n1
6 | 238 | CC(=Cc1ccc2ccccc2c1)c1ccc(C(=O)O)cc1
7 | 210 to 212 | COc1cccc(C=C2NC(=O)NC2=O)c1OCc1ccccc1
8 | 133 to 135 | COC(=O)c1ccc(OCCCOc2cc3c(cc2O)CCO3)cc1
9 | 122 to 123 | CC(=O)OCc1c(C)n(C[C@H]2C[C@@H]2C)c2c(OCc3ccc(F)cc3)nncc12
10 | 155 to 157 | Cc1cc(C)cc(-c2cc(O)c(SCCc3ccccc3)c(=O)o2)c1
11 | 143 to 144 | CN1CCN(c2cccc3ccc(NC(=O)OCc4ccccc4)cc23)CC1
12 | 74 to 85 | Cc1cc(NSc2ccccc2[N+](=O)[O-])ccc1Oc1ncc(Cl)cn1
13 | 74 to 76 | Clc1ccc(C2CNCCN2)cc1Cl (centres undefined)
14 | 95 to 97 | Cc1ccc(Oc2ccc([N+](=O)[O-])cc2)c(O)c1
15 | 230 to 232 | N#Cc1cnn2c(-c3ccccc3)ccnc12
16 | 187 to 188 | CCOC(=O)c1c(Cn2cnnc2)nc2sc(C)c(C)c2c1-c1ccc(OC)c(OC)c1
17 | 72 to 78 | CN(C)c1ccc(C(c2ccccc2)c2c(C(=O)O)[nH]c3ccccc23)cc1 (centres undefined)
18 | 55 to 57 | C=CCO[C@H]1[C@H](C)OC(=O)[C@@H](NC(=O)c2nccc(OC)c2OCc2ccccc2)COC(=O)[C@@H]1Cc1ccccc1
19 | 195 to 198 | Nc1nc2c(ncn2CCC(COC=O)COC=O)c(=O)[nH]1
20 | 97 to 99 | CNCCOc1cc(NC(=O)c2ccc(-c3ccc(-c4noc(C)n4)cc3C)cc2)ccc1OC
21 | 78 to 79 | COc1ccc(C#N)c(ON=C(C)C)c1
22 | 140 to 141 | O=CN(O)C(CC1CCC2(CC1)OCCO2)CS(=O)(=O)c1ccc(Oc2ccc(OC(F)(F)F)cc2)cc1 (centres undefined)
23 | 66 to 67 | CCOC(=O)Cc1nc2ccccc2n1C
24 | 115 | COC(=O)c1sc(-c2ccccc2)cc1NC(C)=O

Row | melting point [°C] | SMILES
25 | 216 to 218 | COc1ccnc(CCc2nc3cc(-c4ccc(S(N)(=O)=O)cc4)cnc3[nH]2)c1
26 | 135 to 136 | Fc1ccc(C(=S)N2CCCC(c3ccc(Cl)c(Cl)c3)=N2)cc1F
27 | 172 to 173 | CC(=O)Nc1ccccc1CS(=O)c1nccn1-c1ccccn1 (centres undefined)
28 | 165 to 169 | O=C(OC1CCC1)N1CCC(c2nc3cc(-c4ccc(-n5cnnn5)cc4F)ccc3o2)CC1
29 | 107 to 109 | O=S1(=O)NCN(CCF)c2cc(F)ccc21
30 | 142 to 143 | FC(F)(F)c1cc(Nc2ccc3[nH]ccc3c2)nc(-c2cccnc2)n1
31 | 139 to 140 | COc1cccc(C(=O)O)c1-c1ccccc1OC(C)C
32 | 216 to 218 | CCC1c2cccn2-c2ccc(F)cc2N1S(=O)(=O)c1cc(C)c(O)c(C)c1 (centres undefined)
33 | 212 to 220 | Cc1nc(-c2ccc(C#N)cc2)cn1-c1ccc(C#N)cc1
34 | 169 to 170 | O=C(Nc1cccc2c1C(=O)c1c-2n[nH]c1C1CCN(C(=O)C2CCCNC2)CC1)NN1CCOCC1 (centres undefined)
35 | 315 to 317 | Cc1nc2cc(Br)ccc2c(=O)n1C1CCC(=O)NC1=O (centres undefined)
36 | 153 to 156 | NC(=O)N(O)CCNC(=O)c1cccc(Oc2ccc(Cl)c(Cl)c2)c1
37 | 139 to 140 | Cc1c(C(F)(F)F)noc1NS(=O)(=O)c1ccc(-c2ccccc2)cc1
38 | 183 to 185 | CN1C(=O)CC[C@]2(C)c3ccc(C=Cc4cncc5ccccc45)cc3CC[C@@H]12
39 | 160 to 163 | Cc1ncccc1C(N)=O
40 | 308 to 310 | COc1ccc(OC)c(N2Cc3[nH]c(=O)[nH]c(=O)c3C2)c1
41 | 127 to 129 | CC(C)[C@H](NS(=O)(=O)c1ccc2c(Cl)cnc(Cl)c2c1)C(=O)OC(C)(C)C
42 | 102 to 103 | CC1(C)OC(C(F)(F)F)Nc2ccc(-c3cc(F)cc(C#N)c3)cc21 (centres undefined)
43 | 152 to 153 | COc1cccc2c1CCN(C)C2CN1CCC(c2ccccc2)C1 (centres undefined)
44 | 173 to 174 | CCOC(=O)/C=C/c1cc(OCc2cn(-c3ccc(C(F)(F)F)cn3)nc2C)nn1C
45 | 222 to 224 | N#Cc1ccc(-c2nc(N3C(=O)OCC34CC4)sc2F)cc1
46 | 190 to 192 | O=C(O)CCC(=O)c1ccc(OC2CCCCC2)cc1
47 | 158 to 160 | CC(=O)OCCN(C(=O)Cn1c(=O)n(C)c2nc(-c3ccccc3)ncc21)c1ccccc1
48 | 230 | CCC1(C)C(=CC=C2C(=O)c3ccccc3C2=C(C#N)C#N)N2CCc3cccc1c32 (centres undefined)

Row | melting point [°C] | SMILES
49 | 87 to 88 | OC(c1ccccc1)(c1ccccc1)C1CCN(CCCOc2ccccc2)CC1
50 | 63.5 to 64.2 | N#Cc1ccc(F)c(-c2ccc(OC(F)(F)F)cc2)c1
51 | 165 to 167 | COC(=O)CCn1c(C)c(Cc2cccnc2)c2c(CCC(=O)O)cccc21
52 | 146 to 148 | C=CCOC(=O)COC(=O)c1c(Br)c(Br)c(C(=O)OCC(=O)OCC=C)c(Br)c1Br
53 | 144 to 146 | COC(=O)C1C(C)OC(=O)C(C)C1NC(=O)OCc1ccccc1 (centres undefined)
54 | 78 to 79 | Oc1ccc(Oc2cnc3cc(F)ccc3n2)cc1
55 | 209 to 212 | O=C1c2ccc(Cl)cc2C(=O)N1c1ccc([N+](=O)[O-])cc1Cl
56 | 82 to 85 | O=S(=O)(Cl)c1ccc(-c2ccc(F)cc2)s1
57 | 197 to 198 | Cc1c(C#N)sc2nc(-c3ccc4c(c3)OCO4)nc(N3CCOCC3)c12
58 | 127 to 128 | Cc1ccc(N(C)c2ccco2)cc1O
59 | 156 | Cc1cccc(-c2ccccc2C(=O)NCCc2ccccc2)c1N1C(=O)c2ccccc2C1=O
60 | 155 to 156 | CCC(C)n1c(=O)ccc2cnc(Nc3ccccc3)nc21 (centres undefined)
61 | 159 to 161 | CCc1ccc2c(c1)C=Cc1sc(C)nc1C2c1cn(Cc2cccc(C(=O)O)c2)c(=O)[nH]c1=O (centres undefined)
62 | 113 to 115 | COC(=O)Cc1ccc(CN2CCN(C(c3ccccc3)c3ccc(Cl)cc3)CC2)cc1 (centres undefined)
63 | 27 to 31 | CCN(CC)CCCOc1ccc(-c2nnc(CSCCOc3ccccc3)o2)cc1
64 | 188 to 189 | COC(=O)c1ccc(NN=CC(=O)OCCC#N)cc1S(N)(=O)=O
65 | 219 to 221 | Cc1c(-c2ccccc2)n(-c2c(F)cccc2F)c(-c2ccccc2)cc1=O
66 | 57 to 60 | CC(C)CC(=O)N1CCC(NC(=O)c2ccccc2Oc2ccc(Cl)cc2Cl)CC1
67 | 137 to 138 | Cc1cc(N(C)Cc2ccc(-c3ccc(OC(F)(F)F)cc3)nc2)ccc1OCC(=O)O
68 | 95 to 96 | CCCCc1nc2c(N)nc3ccccc3c2n1CCNC(=O)CCCCC1SCC2NC(=N)NC21 (centres undefined)
69 | 168 to 170 | CCOC(=O)c1c(CC(=O)O)n(-c2ccc(OC(F)(F)F)cc2)c2ccc(Oc3ccc(CCl)cn3)cc12
70 | 110 to 111 | CC(=O)Nc1ccc(O[C@H](c2ccc([N+](=O)[O-])cc2)[C@@H](O)CO)cc1
71 | 198 to 200 | COC(=O)Cn1c(-c2ccc(Cl)cc2)nc2cccnc21
72 | 273 to 275 | O=C1N(Cc2ncccc2C(F)(F)F)c2ccccc2C12COc1c(Cl)cc3c(c12)OCCO3 (centres undefined)

Row | melting point [°C] | SMILES
73 | 71 to 73 | Nc1c(OCCCl)cccc1[N+](=O)[O-]
74 | 216 to 217 | CC(=O)NCC1CC(c2ccc(-n3ccc(C=NO)c3)c(F)c2)=NO1 (single isomer, unassigned; (-))
75 | 140 to 143 | Cc1ccc(-c2ncn(-c3ccc(C(F)(F)C(F)(F)C(F)(F)F)cc3)n2)cc1
76 | 88 to 90 | CCCCn1c(C=O)cnc1Cc1c(F)cccc1Cl
77 | 182 to 184 | COCCOC(=O)Cc1cccc(Nc2nccc(-c3sc(N)nc3C)n2)c1
78 | 233 | CC#CCOc1ccc(S(=O)(=O)C2(C(=O)O)CCN(C(C)C)CC2)cc1
79 | 306 to 308 | CC(C)(C)Nc1c(NCc2ccc(C(F)(F)F)cc2)c(=O)c1=O
80 | 149 to 152 | COc1ccc(CN2CCc3cc(O)ccc3C2)c(OC)c1
81 | 201 to 202 | Cn1cc(C(=O)C(Cl)Cl)c(=O)c(-c2cccc(Cl)c2)c1
82 | 88 to 89 | CN(Cc1ccc(N)cc1)C1CCSCC1
83 | 73 to 76 | O=C(c1cccnc1)c1cccc([N+](=O)[O-])c1
84 | 138 to 140 | Clc1ccc(-c2cc(Cl)c3ccccc3n2)cc1Cl
85 | 204 to 208 | COc1ccc2c(c1)c(C=C1SC(=S)N(CC(=O)O)C1=O)c(C)n2C(=O)c1ccc(Cl)cc1
86 | 178 to 179 | O=C(C=Cc1ccc(CN(CCO)C2CCCCC2)cc1)Nc1ccc(-c2ccc(Cl)cc2)cc1
87 | 184 to 186 | CCOC(=O)N1CCN(C2Cc3ccccc3Sc3cc(Cl)c(Cl)cc32)CC1 (centres undefined)
88 | 125 to 132 | CC(C(=O)O)c1ccc(C=C2CCCC2O)cc1 (centres undefined)
89 | 200 to 201 | Nc1cc([N+](=O)[O-])c[nH]c1=O
90 | 52 to 54 | COC(=O)Cc1c(C(=O)OC)ccn1CCO
91 | 103 to 105 | CCCCCCOc1ccc(-c2ccc(OCCCCCCBr)cc2)cc1
92 | 280 to 282 | COc1ccc(-c2c(-c3ccc(S(N)(=O)=O)cc3)[nH]c3ccccc23)cc1
93 | 231 to 233 | CNC(=O)c1ccc(CCN2CC=C(c3c[nH]c(-c4ccc(F)cc4)c3-c3ccncc3)CC2)cc1
94 | 209 to 211 | O=S1(=O)N=CN(C2CCCCCCC2)c2cc(Cl)ccc21

Row | SMILES | melting point [°C]
95 | CCOP(=O)(NC(=O)c1cc(=O)c2ccccc2o1)OCC | 182 to 183
96 | CCOc1ccc(C=NOCCO)cn1 | 52 to 54
97 | Cc1cc(C(N)=O)ncc1C(c1c(F)ccc(F)c1F)S(=O)(=O)CCC(Cl)(Cl)Cl (centres undefined) | 173 to 175
98 | CC(C)(C)C(NC(=O)c1ccc(Cl)cc1)NC(=N[N+](=O)[O-])Nc1cccnc1 (centres undefined) | 203 to 204
99 | Cc1ncc2n1-c1ccccc1C(c1ccccc1)=NC2 | 180 to 182
